Reference: the NIST ThermoML archive (doi:10.1021/je5005752)
Values joined by “and” are separate entries in the source; they are usually repeats but may differ in a detail not shown here. Equal entries are not always repeated. Numbers after ± are expanded uncertainties.

What was measured:
[1] = 101 kPa, Liquid; for viscosity: Falling or rolling sphere viscometry; for mass density: Vibrating tube method
[2] = xn = mol fraction of the nth substance listed; conditions: 101 kPa, Liquid, x2 = 0; for viscosity: Falling or rolling sphere viscometry; for mass density: Vibrating tube method

SMILES | viscosity ([1]; 288.15 K) [mPa·s] | mass density ([1]; 288.15 K) [kg/m3] | viscosity ([1]; 293.15 K) [mPa·s] | mass density ([1]; 293.15 K) [kg/m3] | viscosity ([1]; 298.15 K) [mPa·s] | mass density ([1]; 298.15 K) [kg/m3] | viscosity ([1]; 303.15 K) [mPa·s] | mass density ([1]; 303.15 K) [kg/m3] | viscosity ([1]; 308.15 K) [mPa·s] | mass density ([1]; 308.15 K) [kg/m3] | viscosity ([1]; 313.15 K) | mass density ([1]; 313.15 K) [kg/m3] | viscosity ([1]; 318.15 K) [mPa·s] | mass density ([1]; 318.15 K) [kg/m3] | viscosity ([1]; 323.15 K) [mPa·s] | mass density ([1]; 323.15 K) [kg/m3] | viscosity ([2]; 288.15 K) [mPa·s] | mass density ([2]; 288.15 K) [kg/m3] | viscosity ([2]; 293.15 K) [mPa·s] | mass density ([2]; 293.15 K) [kg/m3] | other results
CC(C)CO [2-methyl-1-propanol] | 4.829 ± 0.1 | 805.88 ± 0.19 | 4.052 ± 0.086 | 802.03 ± 0.19 | 3.431 ± 0.073 | 798.16 ± 0.2 | 2.923 ± 0.062 | 794.25 ± 0.2 | 2.505 ± 0.053 | 790.31 ± 0.2 | 2.161 ± 0.046 mPa·s | 786.31 ± 0.2 | 1.876 ± 0.04 | 782.26 ± 0.2 | 1.652 ± 0.035 | 778.14 ± 0.2 |  |  |  |  | 
CC(C)CO [2-methyl-1-propanol] + CCCC(=O)OCC |  |  |  |  |  |  |  |  |  |  |  |  |  |  |  |  | 4.829 ± 0.1 | 805.88 ± 0.19 | 4.052 ± 0.086 | 802.03 ± 0.19 | viscosity ([2]; 298.15 K): 3.431 ± 0.073 mPa·s; mass density ([2]; 298.15 K): 798.16 ± 0.2 kg/m3; viscosity ([2]; 303.15 K): 2.923 ± 0.062 mPa·s; mass density ([2]; 303.15 K): 794.25 ± 0.2 kg/m3; viscosity ([2]; 308.15 K): 2.505 ± 0.053 mPa·s; mass density ([2]; 308.15 K): 790.31 ± 0.2 kg/m3; viscosity ([2]; 313.15 K): 2.161 ± 0.046 mPa·s; mass density ([2]; 313.15 K): 786.31 ± 0.2 kg/m3; viscosity ([2]; 318.15 K): 1.876 ± 0.04 mPa·s; mass density ([2]; 318.15 K): 782.26 ± 0.2 kg/m3; viscosity ([2]; 323.15 K): 1.652 ± 0.035 mPa·s; mass density ([2]; 323.15 K): 778.14 ± 0.2 kg/m3
CC(C)CCO [3-methylbutan-1-ol] | 5.057 ± 0.11 | 812.29 ± 0.27 | 4.288 ± 0.094 | 808.58 ± 0.27 | 3.671 ± 0.08 | 804.84 ± 0.27 | 3.155 ± 0.069 | 801.09 ± 0.27 | 2.73 ± 0.06 | 797.31 ± 0.27 | 2.375 ± 0.052 mPa·s | 793.51 ± 0.27 | 2.076 ± 0.045 | 789.67 ± 0.27 | 1.841 ± 0.04 | 785.79 ± 0.27 |  |  |  |  | 
CC(C)CCO [3-methylbutan-1-ol] + CCCC(=O)OCC |  |  |  |  |  |  |  |  |  |  |  |  |  |  |  |  | 5.057 ± 0.11 | 812.29 ± 0.27 | 4.288 ± 0.094 | 808.58 ± 0.27 | viscosity ([2]; 298.15 K): 3.671 ± 0.08 mPa·s; mass density ([2]; 298.15 K): 804.84 ± 0.27 kg/m3; viscosity ([2]; 303.15 K): 3.155 ± 0.069 mPa·s; mass density ([2]; 303.15 K): 801.09 ± 0.27 kg/m3; viscosity ([2]; 308.15 K): 2.73 ± 0.06 mPa·s; mass density ([2]; 308.15 K): 797.31 ± 0.27 kg/m3; viscosity ([2]; 313.15 K): 2.375 ± 0.052 mPa·s; mass density ([2]; 313.15 K): 793.51 ± 0.27 kg/m3; viscosity ([2]; 318.15 K): 2.076 ± 0.045 mPa·s; mass density ([2]; 318.15 K): 789.67 ± 0.27 kg/m3; viscosity ([2]; 323.15 K): 1.841 ± 0.04 mPa·s; mass density ([2]; 323.15 K): 785.79 ± 0.27 kg/m3
CCCCO [butan-1-ol] | 3.365 ± 0.072 | 813.46 ± 0.2 | 2.913 ± 0.062 | 809.66 ± 0.2 | 2.563 ± 0.055 | 805.84 ± 0.2 | 2.257 ± 0.048 | 801.99 ± 0.21 | 1.994 ± 0.043 | 798.12 ± 0.21 | 1.779 ± 0.038 mPa·s | 794.22 ± 0.21 | 1.576 ± 0.034 | 790.28 ± 0.21 | 1.422 ± 0.03 | 786.29 ± 0.21 |  |  |  |  | 
CCCCO [butan-1-ol] + CCCC(=O)OCC |  |  |  |  |  |  |  |  |  |  |  |  |  |  |  |  | 3.365 ± 0.072 | 813.46 ± 0.2 | 2.913 ± 0.062 | 809.66 ± 0.2 | viscosity ([2]; 298.15 K): 2.563 ± 0.055 mPa·s; mass density ([2]; 298.15 K): 805.84 ± 0.2 kg/m3; viscosity ([2]; 303.15 K): 2.257 ± 0.048 mPa·s; mass density ([2]; 303.15 K): 801.99 ± 0.21 kg/m3; viscosity ([2]; 308.15 K): 1.994 ± 0.043 mPa·s; mass density ([2]; 308.15 K): 798.12 ± 0.21 kg/m3; viscosity ([2]; 313.15 K): 1.779 ± 0.038 mPa·s; mass density ([2]; 313.15 K): 794.22 ± 0.21 kg/m3; viscosity ([2]; 318.15 K): 1.576 ± 0.034 mPa·s; mass density ([2]; 318.15 K): 790.28 ± 0.21 kg/m3; viscosity ([2]; 323.15 K): 1.422 ± 0.03 mPa·s; mass density ([2]; 323.15 K): 786.29 ± 0.21 kg/m3
CCCC(=O)OCC [ethyl butanoate] | 0.7224 ± 0.016 | 884.16 ± 0.27 | 0.6808 ± 0.015 | 878.9 ± 0.27 | 0.643 ± 0.014 | 873.62 ± 0.27 | 0.6072 ± 0.013 | 868.33 ± 0.27 | 0.5736 ± 0.013 | 863.02 ± 0.27 | 0.5424 ± 0.012 mPa·s and 0.5425 ± 0.012 mPa·s | 857.7 ± 0.27 | 0.5132 ± 0.011 | 852.36 ± 0.27 | 0.487 ± 0.011 | 847 ± 0.27 |  |  |  |  | 
CCCCCCO [hexan-1-ol] | 6.308 ± 0.14 | 822.26 ± 0.27 | 5.332 ± 0.12 | 818.7 ± 0.27 | 4.538 ± 0.099 | 815.12 ± 0.27 | 3.896 ± 0.085 | 811.52 ± 0.27 | 3.361 ± 0.073 | 807.89 ± 0.27 | 2.917 ± 0.064 mPa·s | 804.25 ± 0.27 | 2.546 ± 0.056 | 800.56 ± 0.27 | 2.241 ± 0.049 | 796.85 ± 0.27 |  |  |  |  | 
CCCCCCO [hexan-1-ol] + CCCC(=O)OCC |  |  |  |  |  |  |  |  |  |  |  |  |  |  |  |  | 6.308 ± 0.14 | 822.26 ± 0.27 | 5.332 ± 0.12 | 818.7 ± 0.27 | viscosity ([2]; 298.15 K): 4.538 ± 0.099 mPa·s; mass density ([2]; 298.15 K): 815.12 ± 0.27 kg/m3; viscosity ([2]; 303.15 K): 3.896 ± 0.085 mPa·s; mass density ([2]; 303.15 K): 811.52 ± 0.27 kg/m3; viscosity ([2]; 308.15 K): 3.361 ± 0.073 mPa·s; mass density ([2]; 308.15 K): 807.89 ± 0.27 kg/m3; viscosity ([2]; 313.15 K): 2.917 ± 0.064 mPa·s; mass density ([2]; 313.15 K): 804.25 ± 0.27 kg/m3; viscosity ([2]; 318.15 K): 2.546 ± 0.056 mPa·s; mass density ([2]; 318.15 K): 800.56 ± 0.27 kg/m3; viscosity ([2]; 323.15 K): 2.241 ± 0.049 mPa·s; mass density ([2]; 323.15 K): 796.85 ± 0.27 kg/m3
CCCO [propan-1-ol] | 2.514 ± 0.054 | 807.75 ± 0.2 | 2.208 ± 0.047 | 803.77 ± 0.21 | 1.95 ± 0.042 | 799.76 ± 0.21 | 1.727 ± 0.037 | 795.72 ± 0.21 | 1.542 ± 0.033 | 791.64 ± 0.21 | 1.378 ± 0.029 mPa·s | 787.52 ± 0.21 | 1.236 ± 0.026 | 783.36 ± 0.21 | 1.124 ± 0.024 | 779.14 ± 0.21 |  |  |  |  | 
CCCO [propan-1-ol] + CCCC(=O)OCC |  |  |  |  |  |  |  |  |  |  |  |  |  |  |  |  | 2.514 ± 0.054 | 807.75 ± 0.2 | 2.208 ± 0.047 | 803.77 ± 0.21 | viscosity ([2]; 298.15 K): 1.95 ± 0.042 mPa·s; mass density ([2]; 298.15 K): 799.76 ± 0.21 kg/m3; viscosity ([2]; 303.15 K): 1.727 ± 0.037 mPa·s; mass density ([2]; 303.15 K): 795.72 ± 0.21 kg/m3; viscosity ([2]; 308.15 K): 1.542 ± 0.033 mPa·s; mass density ([2]; 308.15 K): 791.64 ± 0.21 kg/m3; viscosity ([2]; 313.15 K): 1.378 ± 0.029 mPa·s; mass density ([2]; 313.15 K): 787.52 ± 0.21 kg/m3; viscosity ([2]; 318.15 K): 1.236 ± 0.026 mPa·s; mass density ([2]; 318.15 K): 783.36 ± 0.21 kg/m3; viscosity ([2]; 323.15 K): 1.124 ± 0.024 mPa·s; mass density ([2]; 323.15 K): 779.14 ± 0.21 kg/m3
